target: T1, CETP (Homo sapiens, UniProt P11597); assay: Inhibitory activity against CETP in vitro (fluorescent BODIPY-CE transfer, donor/acceptor microemulsion, human plasma); format: biochemical; conditions: plasma from a healthy volunteer diluted to 0.64%; preincubation with test solution 37° C. 24 hours, then 3 hours with donor/acceptor microemulsion; fluorescence Ex.550 nm/Em.600 nm; read-out: IC50 (inhibition of CETP activity)
T1 construct: from tissue; host or cells: plasma from a healthy volunteer
T1 sequence (P11597 18-493): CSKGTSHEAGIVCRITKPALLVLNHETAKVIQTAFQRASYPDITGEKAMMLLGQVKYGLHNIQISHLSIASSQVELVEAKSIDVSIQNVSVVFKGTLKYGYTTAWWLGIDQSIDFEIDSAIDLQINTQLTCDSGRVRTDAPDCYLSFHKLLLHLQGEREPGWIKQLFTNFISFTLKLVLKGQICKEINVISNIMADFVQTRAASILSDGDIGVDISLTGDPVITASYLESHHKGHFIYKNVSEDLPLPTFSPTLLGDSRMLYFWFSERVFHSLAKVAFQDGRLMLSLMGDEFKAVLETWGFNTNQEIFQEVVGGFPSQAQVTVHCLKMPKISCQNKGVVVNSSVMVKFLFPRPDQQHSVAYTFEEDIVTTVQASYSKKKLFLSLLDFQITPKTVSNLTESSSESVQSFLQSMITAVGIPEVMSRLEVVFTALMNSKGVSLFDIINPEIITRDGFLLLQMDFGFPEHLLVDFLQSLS
Protocol: The inhibitory activity of the compounds of the present invention against CETP was tested in this experiment.
A solution of 1-Palmitoyl-2-oleoyl-sn-glycero-3-phosphocholine (3.5 mg), cholesteryl oleate (3 mg) and triolein (0.7 mg) in chloroform was mixed and lipid was air-dried under nitrogen gas to remove solvent. 1,4-Dioxane (0.25 ml) was then added and the mixture was stirred for dissolution. The resultant lipid solution (0.2 ml) was slowly injected under the surface of Tris-saline-EDTA(TSE) buffer solution [10 mM Tris/HCl (pH 7.4), 0.15M NaCl, 2 mM EDTA] (10 ml) with Hamilton syringe, while sonicating in ice-bath. After 1-hour-sonication in ice-bath, the solution was stored at 4° C.
A solution of egg PC (phosphatidylcholine) (0.33 mg) and BODIPY-CE (0.62 mg) in chloroform was mixed. After removing solvent by air-drying lipid under nitrogen gas, TSE buffer solution (3 ml) was added and the solution was sonicated in ice-bath. This solution was filtered to sterilize through 0.22 μm filter and stored at 4° C.
A test solution was prepared using dimethyl sulfoxide as a solvent. Plasma from a healthy volunteer was diluted to 0.64% with TSE buffer, and to the resultant plasma solution (187 μl) was added a test solution (3 μl) or the solvent alone followed by incubation at 37° C. for 24 hours. After addition of TSE buffer solution (10 μl) containing 5% donor micro-emulsion and 5% acceptor microemulsion, the mixture was incubated at 37° C. for 3 hours. […] CETP activity was defined as the difference between the measurements obtained before incubation and after incubation. The decreasing rate of the difference in the sample was defined as the inhibition rate of CETP activity. IC50 for each sample was calculated from the inhibition rate of CETP activity.

IC50	Compound
0.89 nM	CCOC(=O)N1c2ccc(C(F)(F)F)cc2[C@@H](N(Cc2cc(C(F)(F)F)cc(C(F)(F)F)c2)c2ncc(N(C)CCC(=O)O)cn2)C[C@H]1CC [Example 127]
0.66 nM	CCOC(=O)N1c2ccc(C(F)(F)F)cc2C(N(Cc2cc(C(F)(F)F)cc(C(F)(F)F)c2)c2ncc(OCCCCC(=O)O)cn2)CC1CC (stereo not drawn) [Example 198]
0.53 nM	CCOC(=O)N1c2ccc(C(F)(F)F)cc2[C@@H](N(Cc2cc(C(F)(F)F)cc(C(F)(F)F)c2)c2ccc(OCCCC(=O)O)cn2)C[C@H]1CC [Example 231, (2R,4S)-4-{[3,5-bis(trifluoromethyl)benzyl]-[5-(3-carboxypropoxy)pyridin-2-yl]}amino-2-ethyl-6-trifluoromethyl-3,4-dihydro-2H-quinoline-1-carboxylic acid ethyl ester]
2.7 nM	CCOC(=O)N1c2ccc(C(F)(F)F)cc2[C@@H](N(Cc2cc(C#N)cc(C(F)(F)F)c2)c2ncc(N3CCC(C(=O)O)CC3)cn2)C[C@H]1CC [Example 235, (2R,4S)-4-{[5-(4-carboxypiperidin-1-yl)pyrimidin-2-yl]-(3-cyano-5-trifluoromethylbenzyl)}amino-2-ethyl-6-trifluoromethyl-3,4-dihydro-2H-quinoline-1-carboxylic acid ethyl ester]
0.23 nM	(2R*,4S*)-4-{[3,5-bis(trifluoromethyl)benzyl]-[(5-morpholin-4-yl)pyrimidin-2-yl]}amino-2-ethyl-6-trifluoromethyl-3,4-dihydro-2H-quinoline-1-carboxylic acid 2-hydroxyethyl ester [Example 174]
4.2 nM	(2R,4S)-4-{[3,5-bis(trifluoromethyl)-benzyl]-(5-carboxypyrimidin-2-yl)}amino-2-ethyl-6-trifluoromethyl-3,4-dihydro-2H-quinoline-1-carboxylic acid ethyl ester [Example 16]
0.32 nM	(2R,4S)-4-{[3,5-bis(trifluoromethyl)benzyl]-[5-(2-methoxyethoxy)pyrimidin-2-yl]}amino-2-ethyl-6-trifluoromethyl-3,4-dihydro-2H-quinoline-1-carboxylic acid 2-carboxyethyl ester [Example 291]
0.18 nM	(2R,4S)-4-{[3,5-bis(trifluoromethyl)benzyl]-[5-(morpholin-4-yl)pyrimidin-2-yl]}amino-2-ethyl-6-trifluoromethyl-3,4-dihydro-2H-quinoline-1-carboxylic acid 5-carboxypentyl ester [Example 275]

Compound	IC50
(2R,4S)-4-{[3,5-bis(trifluoromethyl)benzyl]-[5-(morpholin-4-yl)-pyrimidin-2-yl]}amino-2-ethyl-6-trifluoromethyl-3,4-dihydro-2H-quinoline-1-carboxylic acid ethyl ester [Example 1]	0.17 nM

— patent US8158640B2, “Tetrahydroquinoline derivatives and a process for preparing the same” (Mitsubishi Tanabe Pharma Corporation, priority 2005, dated 2012)
